Measured values reported in PubChem BioAssay (NCI).
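Values below derive from 48-hour exposures of cells grown in 96-well plates, with endpoints linearly interpolated between the two concentrations bracketing the appropriate inhibition level. TGI denotes the concentration required for complete inhibition of growth.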

What was measured:
Assay in all cases: NCI anticancer screen, dose series, 48 h
T-47D breast = system: T-47D breast
LOX IMVI melanoma = system: LOX IMVI melanoma
SN12C renal = system: SN12C renal
HCT-116 colon = system: HCT-116 colon
MOLT-4 leukemia = system: MOLT-4 leukemia
SK-MEL-5 melanoma = system: SK-MEL-5 melanoma
SR leukemia = system: SR leukemia
HS 578T breast = system: HS 578T breast
KM12 colon = system: KM12 colon
K-562 leukemia = system: K-562 leukemia

Measured: TGI

CN(C)Cc1ccc(O)c(CN(C)C)n1
> 100 µM: all assays above
